Source: US7985434B2, “Compositions of atomized or lyophilized maca (Lepidium meyenii) extracts and atomized or lyophilized yacon (Smallanthus sanchifolius) extracts as adjuvants in the treatment of different conditions” (Universidad Peruana Cayetano Heredia, priority 2009, dated 2011)

Tests used:
spermatozoids [1] = assay: Count or daily production of spermatozoids (synthetic macamide); format: in vivo; conditions: inventors' laboratory (Gonzales, 2006 page 104)
Source text: (§1) In the inventors' laboratory, the effect of a synthetic macamide, N-benzyl-5-oxo-6E, 8E-octadecadienamide, has been tested, which had no effect in the count or daily production of spermatozoids (Gonzales, 2006 page 104). […] Most of the biological activity is rather found in the more polar fractions (Gonzales, 2006; 2006a; Valerio & Gonzales, 2005).

spermatozoids [2] = assay: Number of spermatozoids in mice; format: in vivo
Source text: as §1

Bacillus subtilis = conditions: between six sesquiterpene lactones tested; cited from earlier work

In the case of `CCCCCCCCC/C=C/C=C/C(=O)CCCC(=O)NCc1ccccc1` [N-benzyl-5-oxo-6E, 8E-octadecadienamide], the “effect in the count or daily production of spermatozoids” value (spermatozoids [1]) is reported as “no effect”.
In the case of `CCCCCCCCCCCCCCCC(=O)NCc1ccccc1` [N-benzyl-hexadecanamide], the “effect on the number of spermatozoids” value (spermatozoids [2]) is reported as “not been observed”.
For Fluctuanine, the antibacterial activity (Bacillus subtilis) is given as “greatest antibacterial activity”.
